Experimental data: US20200246364A1, “MEDICAL APPLICATION OF COMPOSITION OF FRUCTOSE-1,6-BISPHOSPHATE AND BLOOD CONCENTRATION STABILIZER THEREOF” (ZHEJIANG UNIVERSITY, priority 2017, published 2020)

Columns and labels:
[1] = test system: Normal human astrocytes (HA); test: Regulation of metabolism in normal human astrocytes; format: cell-based; conditions: vs control group
Description: Normal human astrocytes (HA) were incubated in culture media containing different concentrations of trisodium fructose-1,6-bisphosphate salt (0 mM, 0.25 mM, 0.5 mM, 1 mM), and lactic acid level in the culture media and intracellular ATP level were measured after 12 h and 24 h.
The normal human astrocytes (HA) were incubated in culture media containing different concentrations of trisodium fructose-1,6-bisphosphate salt (0 mM, 0.25 mM, 0.5 mM, 1 mM, 2 mM, 2.5 mM), and after 36 h, reduced glutathione GSH level and a ratio of NADPH/NADP+ in the group of […] trisodium fructose-1,6-bisphosphate in the cells were measured. […] (FIG. 1d, e)

C6 [2] = test: Intracellular glycolytic intermediates (LC-MS/MS) and FBP in culture medium; format: cell-based, rat; conditions: C6, 1.6 mM, 36 h
Description: (§1) Rat glioma cell strains (C6), human glioma cell strains (U87-MG, U-251, SHG-44) and patient-derived glioma cells (tumor 1, tumor 3) were incubated in a culture medium containing 1.6 mM of trisodium fructose-1,6-bisphosphate, and after 36 h, levels of glycolytic intermediates including glucose-6-phosphate G6P, fructose-1,6-bisphosphate FBP, glyceraldehyde 3-phosphate (GAP), dihydroxyacetone phosphate (DHAP), and […] 3-phosphoglyceric acid PGA in respective cells were measured by using LC-MS/MS; and additionally, the levels of fructose-1,6-bisphosphate in each glioma cell strain at 12 h and 36 h were measured.

KNS-89 = test: Intracellular glycolytic intermediates (LC-MS/MS); format: cell-based, human; conditions: KNS-89, 1.6 mM, 36 h
SHG-44 = test: Intracellular glycolytic intermediates (LC-MS/MS) and FBP in culture medium; format: cell-based, human; conditions: SHG-44, 1.6 mM, 36 h
Description: as §1

U87-MG = test: as above; format: cell-based, human; conditions: 1.6 mM, 36 h
Description: as §1

[3] = test system: patient-derived glioma cells Tumor 1; test: as above; format: cell-based, human; conditions: Tumor 1, 1.6 mM, 36 h
Description: as §1

[4] = test system: patient-derived glioma cells Tumor 3; test: as above; format: cell-based, human; conditions: Tumor 3, 1.6 mM, 36 h
Description: as §1

glioma cells U87-MG = test: Lactic acid released by glioma cells (glycolysis); format: cell-based, human
Description: (§2) Human glioma cell strains (U87-MG, KNS-89, SHG-44) were respectively incubated in culture media containing 0.8 mM of trisodium fructose-1,6-bisphosphate salt, and 1.6 mM of trisodium fructose-1,6-bisphosphate salt, and 1.6 mM of 2-deoxyglucose, and the contents of lactic acid as the final glycolytic product released by the cells in the culture media were measured after 12 h, 24 h, 36 h, and 48 h. […] Human glioma cell strain (U87-MG) was incubated in the culture medium containing 0.8 mM of trisodium fructose-1,6-bisphosphate salt for 1 h, 3 h, 6 h, 12 h, 24 h, 36 h, and 48 h, and level changes of key metabolic enzymes in the glycolytic pathway of cells were measured by Western Blot at the respective time points.

glioma cells KNS-89 = test: Lactic acid released by glioma cells (glycolysis); format: cell-based, human
Description: as §2

C6 [5] = test: Reactive oxygen species and mitochondrial membrane potential; format: cell-based, rat; conditions: C6, 0.8 mM
U251 = test: as above; format: cell-based, human; conditions: U251, 0.8 mM
C6 [6] = test: Glutathiones and NADPH/NADP+ (LC-MS/MS); format: cell-based, rat; conditions: C6, 1.6 mM, 36 h
Description: Rat glioma cell strain (C6) and human glioma cell strain (KNS-89, SHG-44) were respectively cultured in a medium containing 1.6 mM of trisodium fructose-1,6-bisphosphate for 36 h, and important antioxidants in cells were measured by liquid-mass spectrometry (LC-MS/MS).

[7] = test system: fructose-1,6-bisphosphatase 1; test: Kidney protein level of fructose-1,6-bisphosphatase 1 after 14 days treatment (Western Blot); format: in vivo; conditions: SD rats, 14 days i.g.; FBP 500 mg/kg, metformin 150 mg/kg, sitagliptin 20 mg/kg; vs control group
Description: 180-200 g SD rats were divided into 4 groups: a saline control group, a trisodium fructose-1,6-bisphosphate hydrate group (500 mg/kg, i.g), a metformin group (150 mg/kg, i.g) or a sitagliptin group (20 mg/kg, i.g), and a trisodium fructose-1,6-bisphosphate and metformin or sitagliptin combination group, 5 rats in each group. All groups were intragastrically treated, metformin or sitagliptin was administrated 0.5 h before fructose-1,6-bisphosphate, and this was repeated in 14 consecutive days. At 3 hours after the last intragastric treatment with fructose-1,6-bisphosphate, rat blood was collected to detect the blood concentration of FBP, kidney tissue was taken and the protein level of fructose-1,6-bisphosphatase 1 was measured by Western Blot.

[8] = healthy volunteers, intravenous infusion 250 mg/kg, cited from earlier work
chronic epilepsy in rats = conditions: administered intragastrically; cited from earlier work
melanoma B16 cell = test: Cell viability, Sulforhodamine B (SRB) staining; conditions: Mus musculus, B16, 72 h
Description: Mouse melanoma B16 cells, which had been incubated for 24 hours, were incubated in a medium containing 0.8 mM of trisodium fructose-1,6-bisphosphate, a medium containing 20 μM of sitagliptin, and a medium containing 0.8 mM of trisodium fructose-1,6-bisphosphate and 20 μM of sitagliptin for 72 h. A control group (Con) was not treated with the agent. Cell viability was determined by Sulforhodamine B (SRB) staining analysis method.

## O=C(COP(=O)(O)O)[C@@H](O)[C@H](O)[C@H](O)COP(=O)(O)O [FBP, fructose-1,6-bisphosphate]
[1]; 0.8 mM, 36 h
  intracellular protein level of Cyto C (Western Blot): significantly increased
  intracellular protein levels of PFKFB3 and LDH5 (Western Blot): significantly reduced
[1]; 1.6 mM, 36 h
  ratio of NADPH/NADP+: significantly increased
[1]; 0.25, 0.5, 1 mM, 12 h and 24 h
  lactic acid level in the culture media: decreased significantly
[1]; 0.25, 0.5, 1 mM, 24 h
  intracellular ATP level: increased significantly
[1]; 0.25-2.5 mM, 36 h
  reduced glutathione GSH level: significantly increased
C6 [2]
  Increase folds of intracellular DHAP (compared with the control group): 66.04 folds
  Increase folds of intracellular F6P (compared with the control group): 19.89 folds
  Increase folds of intracellular FBP (compared with the control group): 92.22 folds
  Increase folds of intracellular GAP (compared with the control group): 132.85 folds
  Increase folds of intracellular PGA (compared with the control group): 2.2 folds
KNS-89
  Increase folds of intracellular DHAP (compared with the control group): 8.74 folds
  Increase folds of intracellular F6P (compared with the control group): 1.89 folds
  Increase folds of intracellular FBP (compared with the control group): 21.97 folds
  Increase folds of intracellular GAP (compared with the control group): 19.75 folds
  Increase folds of intracellular PGA (compared with the control group): 3.28 folds
SHG-44
  Increase folds of intracellular DHAP (compared with the control group): 12.48 folds
  Increase folds of intracellular F6P (compared with the control group): 3.12 folds
  Increase folds of intracellular FBP (compared with the control group): 10.74 folds
  Increase folds of intracellular GAP (compared with the control group): 21.03 folds
  Increase folds of intracellular PGA (compared with the control group): 2.04 folds
U87-MG
  Increase folds of intracellular DHAP (compared with the control group): 944.4 folds
  Increase folds of intracellular F6P (compared with the control group): 47.31 folds
  Increase folds of intracellular FBP (compared with the control group): 149.69 folds
  Increase folds of intracellular GAP (compared with the control group): 1222.86 folds
  Increase folds of intracellular PGA (compared with the control group): 3.03 folds
[3]
  Increase folds of intracellular DHAP (compared with the control group): 4.9 folds
  Increase folds of intracellular F6P (compared with the control group): 2.02 folds
  Increase folds of intracellular FBP (compared with the control group): 8.27 folds
  Increase folds of intracellular GAP (compared with the control group): 7.22 folds
  Increase folds of intracellular PGA (compared with the control group): 1.13 folds
[4]
  Increase folds of intracellular DHAP (compared with the control group): 55.58 folds
  Increase folds of intracellular F6P (compared with the control group): 14.12 folds
  Increase folds of intracellular FBP (compared with the control group): 22.94 folds
  Increase folds of intracellular GAP (compared with the control group): 76.22 folds
  Increase folds of intracellular PGA (compared with the control group): 1.86 folds
Glioma cells U87-MG; 0.8 mM, 12 h
  Relative levels of lactic acid (compared with the control group): 0.96 ± 0.13
Glioma cells U87-MG; 0.8 mM, 24 h
  Relative levels of lactic acid (compared with the control group): 0.73 ± 0.05
Glioma cells U87-MG; 0.8 mM, 36 h
  Relative levels of lactic acid (compared with the control group): 0.56 ± 0.18
Glioma cells U87-MG; 1.6 mM, 12 h
  Relative levels of lactic acid (compared with the control group): 1.09 ± 0.11
Glioma cells U87-MG; 1.6 mM, 24 h
  Relative levels of lactic acid (compared with the control group): 0.71 ± 0.05
Glioma cells U87-MG; 1.6 mM, 36 h
  Relative levels of lactic acid (compared with the control group): 0.39 ± 0.03
Glioma cells KNS-89; KNS-89, 0.8 mM, 12 h
  Relative levels of lactic acid (compared with the control group): 0.75 ± 0.11
Glioma cells KNS-89; KNS-89, 0.8 mM, 24 h
  Relative levels of lactic acid (compared with the control group): 0.94 ± 0.16
Glioma cells KNS-89; KNS-89, 0.8 mM, 36 h
  Relative levels of lactic acid (compared with the control group): 0.78 ± 0.09
Glioma cells KNS-89; KNS-89, 1.6 mM, 12 h
  Relative levels of lactic acid (compared with the control group): 0.87 ± 0.03
Glioma cells KNS-89; KNS-89, 1.6 mM, 24 h
  Relative levels of lactic acid (compared with the control group): 0.83 ± 0.20
Glioma cells KNS-89; KNS-89, 1.6 mM, 36 h
  Relative levels of lactic acid (compared with the control group): 0.62 ± 0.10
C6 [5]; 12 h
  Relative level of mitochondrial membrane potential (compared with the control group): 0.8 ± 0.14
  Relative level of reactive oxygen species (compared with the control group): 1.26 ± 0.04
C6 [5]; 24 h
  Relative level of mitochondrial membrane potential (compared with the control group): 0.6 ± 0.11
  Relative level of reactive oxygen species (compared with the control group): 1.89 ± 0.03
C6 [5]; 48 h
  Relative level of mitochondrial membrane potential (compared with the control group): 0.1 ± 0.09
C6 [5]; 72 h
  Relative level of mitochondrial membrane potential (compared with the control group): 0.1 ± 0.07
U251; 12 h
  Relative level of mitochondrial membrane potential (compared with the control group): 1.08 ± 0.03
  Relative level of reactive oxygen species (compared with the control group): 1.20 ± 0.04
U251; 24 h
  Relative level of mitochondrial membrane potential (compared with the control group): 1.18 ± 0.01
  Relative level of reactive oxygen species (compared with the control group): 1.19 ± 0.03
U251; 48 h
  Relative level of mitochondrial membrane potential (compared with the control group): 0.6 ± 0.06
  Relative level of reactive oxygen species (compared with the control group): 1.42 ± 0.03
U251; 72 h
  Relative level of mitochondrial membrane potential (compared with the control group): 0.4 ± 0.07
  Relative level of reactive oxygen species (compared with the control group): 1.82 ± 0.03
C6 [6]
  Relative content of GSH (compared with the control group): 0.69 ± 0.01
  Relative content of GSSG (compared with the control group): 0.06 ± 0.00
  Relative ratio of NADPH to NADP+ (compared with the control group): 0.14 ± 0.01
[7]
  protein level of fructose-1,6-bisphosphatase 1 in kidney tissue (Western Blot): significantly up-regulated
[8]; within 5 minutes
  blood concentration: 770 µg/mL
[8]
  half-life: 10 to 15 min
Chronic epilepsy in rats
  long-term effective dose for chronic epilepsy: 100 to 200 mg/kg/day
Melanoma B16 cell; read-out: cell viability (Con = 100)
  viability at 800 µM: 77.7 ± 7.29%
Melanoma B16 cell; read-out: cell viability inhibited
  cytotoxicity at 800 µM: 22%
